According to ChEMBL document CHEMBL4811321, “Synthesis and biological evaluation of 3,4-dihydro-1H-[1,4] oxazepino [6,5,4-hi] indol-1-ones and 4,6-dihydrooxepino [5,4,3-cd] indol-1(3H)-ones as Mycobacterium tuberculosis inhibitors” (Bioorg Med Chem, 2021):
Converted amounts (≈) assume the structure as drawn.

Test system: Mycobacterium tuberculosis
Assay: Antitubercular activity against Mycobacterium tuberculosis mc2 6230 assessed as inhibition of bacterial growth incubated for 7 days by microtiter plate assay
Format: functional
Conditions: mc2 6230, 168 h, time 7 day

**Q.** Which MIC does the source give for `COc1ccc(/C=C2\Cn3cc(I)c4cccc(c43)C(=O)O2)cc1` here?
**A.** Its MIC is > 100 µg/mL.

**Q.** Which MIC does the source give for `COc1cccc(SCC2Cc3cn(Cc4ccccc4)c4cccc(c34)C(=O)O2)c1` (stereo not given) here?
**A.** The MIC was > 100 µg/mL.

**Q.** With `O=C1OC(Cn2cc(-c3ccccc3)nn2)Cc2cn(Cc3ccccc3)c3cccc1c23` (stereo not given) as the compound, how does the MIC read?
**A.** The MIC was > 100 µg/mL.

**Q.** For `COc1ccccc1-c1cn(CC2Cc3cn(Cc4ccccc4)c4cccc(c34)C(=O)O2)nn1` (stereo not given), which MIC is on record?
**A.** Its MIC is > 100 µg/mL.

**Q.** With `CN(Cc1cn(CC2Cc3cn(Cc4ccccc4)c4cccc(c34)C(=O)O2)nn1)S(C)(=O)=O` (stereo not given) as the compound, how does the MIC read?
**A.** The MIC was > 100 µg/mL.

**Q.** For `O=C1OC(CSc2ccccc2)Cc2cn(Cc3ccccc3)c3cccc1c23` (stereo not given), which MIC is on record?
**A.** Its MIC is > 100 µg/mL.

**Q.** For `COc1ccc(-c2cn(CC3Cc4cn(Cc5ccccc5)c5cccc(c45)C(=O)O3)nn2)cc1` (stereo not given), which MIC is on record?
**A.** Its MIC is > 100 µg/mL.

**Q.** Which MIC does the source give for `O=C1O/C(=C/I)Cn2cc(I)c3cccc1c32` here?
**A.** The MIC was 1.6 µg/mL (≈ 3.55 µM).

**Q.** For `O=C1OC(Cn2cc(-c3ccc(F)cc3F)nn2)Cc2cn(Cc3ccccc3)c3cccc1c23` (stereo not given), which MIC is on record?
**A.** The MIC was > 100 µg/mL.

**Q.** With `O=C1OC(Cn2cc(C3CC3)nn2)Cc2cn(Cc3ccccc3)c3cccc1c23` (stereo not given) as the compound, how does the MIC read?
**A.** Its MIC is > 100 µg/mL.

**Q.** Which MIC does the source give for `CCCCc1cn(CC2Cc3cn(Cc4ccccc4)c4cccc(c34)C(=O)O2)nn1` (stereo not given) here?
**A.** The MIC was > 100 µg/mL.

**Q.** Which MIC does the source give for `CCOC(=O)CCCC#C/C=C1\Cn2cc(I)c3cccc(c32)C(=O)O1` here?
**A.** The MIC was 0.4 µg/mL (≈ 0.863 µM).

**Q.** With `CCCCCCCc1cn(CC2Cc3cn(Cc4ccccc4)c4cccc(c34)C(=O)O2)nn1` (stereo not given) as the compound, how does the MIC read?
**A.** Its MIC is > 100 µg/mL.

**Q.** With `COc1ccc(C#C/C=C2\Cn3cc(I)c4cccc(c43)C(=O)O2)cc1` as the compound, how does the MIC read?
**A.** Its MIC is 0.2 µg/mL (≈ 0.439 µM).

**Q.** For `O=C1OC(Cn2cc(CCBr)nn2)Cc2cn(Cc3ccccc3)c3cccc1c23` (stereo not given), which MIC is on record?
**A.** Its MIC is 25 µg/mL (≈ 53.7 µM).

**Q.** Which MIC does the source give for `O=C1OC(CI)Cc2cn(Cc3ccccc3)c3cccc1c23` (stereo not given) here?
**A.** Its MIC is 12.5 µg/mL (≈ 30 µM).

**Q.** With `O=C1OC(Cn2cc(-c3ccccc3F)nn2)Cc2cn(Cc3ccccc3)c3cccc1c23` (stereo not given) as the compound, how does the MIC read?
**A.** The MIC was > 100 µg/mL.

**Q.** For `O=C1O/C(=C/C#Cc2ccccc2)Cn2cc(I)c3cccc1c32`, which MIC is on record?
**A.** Its MIC is 0.4 µg/mL (≈ 0.941 µM).

**Q.** For `CC(C)CCc1cn(CC2Cc3cn(Cc4ccccc4)c4cccc(c34)C(=O)O2)nn1` (stereo not given), which MIC is on record?
**A.** Its MIC is > 100 µg/mL.

**Q.** With `COc1ccccc1SCC1Cc2cn(Cc3ccccc3)c3cccc(c23)C(=O)O1` (stereo not given) as the compound, how does the MIC read?
**A.** The MIC was > 100 µg/mL.

**Q.** With `CCCCC#C/C=C1\Cn2cc(I)c3cccc(c32)C(=O)O1` as the compound, how does the MIC read?
**A.** Its MIC is 0.4 µg/mL (≈ 0.987 µM).

**Q.** For `CCOC(=O)CCCc1cn(CC2Cc3cn(Cc4ccccc4)c4cccc(c34)C(=O)O2)nn1` (stereo not given), which MIC is on record?
**A.** The MIC was > 100 µg/mL.

**Q.** For `CC(C)CCC#C/C=C1\Cn2cc(I)c3cccc(c32)C(=O)O1`, which MIC is on record?
**A.** Its MIC is 0.2 µg/mL (≈ 0.477 µM).

Biological target: not listed separately
Assay: Displacement of UDP-fluorescein from Mycobacterium tuberculosis UDP-galactopyranose mutase by fluorescence polarization assay
Conditions: not given

**Q.** For `O=C1O/C(=C/I)Cn2cc(I)c3cccc1c32`, which Kd is on record?
**A.** Its Kd is 138 µM.

**Q.** For `COc1ccc(C#C/C=C2\Cn3cc(I)c4cccc(c43)C(=O)O2)cc1`, which Kd is on record?
**A.** Its Kd is 72.9 µM.
